Source: ChEMBL document CHEMBL3217623, “Tacrine-mefenamic acid hybrids for inhibition of acetylcholinesterase” (Medchemcomm, 2011)
Calls of active or inactive are those of the source. The rule behind the calls is not given here.

Columns and labels:
Acetylcholinesterase [1] = molecular target: T1, Acetylcholinesterase (Torpedo californica, UniProt P04058); assay: Inhibition of Torpedo californica […] AChE using acetylthiocholine/DTNB as substrate preincubated for 10 mins followed by substrate addition measured every 30 secs for 30 mins by Ellmans method; set-up: species or system Tetronarce californica
Acetylcholinesterase [2] = molecular target: T1, Acetylcholinesterase; assay: Inhibition of Torpedo californica […] AChE using acetylthiocholine/DTNB as substrate assessed as ROS-induced enzyme inactivation preincubated for 10 mins followed by substrate addition measured every 30 secs for 20 mins in presence of horseradish peroxidase and H2O2; set-up: species or system Tetronarce californica
[3] = molecular target: Acetylcholinesterase (Torpedo californica) (UniProt P04058); assay: Non-competitive inhibition of Torpedo californica […] AChE using acetylthiocholine as substrate at 0.2 to 5 uM measured for 2 mins by Lineweaver-Burk plot analysis; settings: Tetronarce californica
Chain of Acetylcholinesterase (Torpedo californica) (P04058 22-564 limits assumed): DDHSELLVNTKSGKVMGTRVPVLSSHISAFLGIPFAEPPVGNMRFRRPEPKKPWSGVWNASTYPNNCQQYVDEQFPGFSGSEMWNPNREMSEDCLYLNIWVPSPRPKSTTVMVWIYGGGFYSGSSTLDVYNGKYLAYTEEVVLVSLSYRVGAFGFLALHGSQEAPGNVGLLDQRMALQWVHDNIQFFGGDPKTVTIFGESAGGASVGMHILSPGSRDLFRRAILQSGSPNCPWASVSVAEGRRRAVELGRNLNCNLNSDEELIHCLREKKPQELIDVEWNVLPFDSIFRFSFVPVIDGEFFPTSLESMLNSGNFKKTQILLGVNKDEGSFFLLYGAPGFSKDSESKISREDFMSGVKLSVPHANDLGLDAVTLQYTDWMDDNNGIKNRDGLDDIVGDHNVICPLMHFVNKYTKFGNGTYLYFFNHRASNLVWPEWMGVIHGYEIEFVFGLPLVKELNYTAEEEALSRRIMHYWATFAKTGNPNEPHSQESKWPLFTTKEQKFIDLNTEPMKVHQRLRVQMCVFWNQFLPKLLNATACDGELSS

T1 sequence (P04058 whole entry): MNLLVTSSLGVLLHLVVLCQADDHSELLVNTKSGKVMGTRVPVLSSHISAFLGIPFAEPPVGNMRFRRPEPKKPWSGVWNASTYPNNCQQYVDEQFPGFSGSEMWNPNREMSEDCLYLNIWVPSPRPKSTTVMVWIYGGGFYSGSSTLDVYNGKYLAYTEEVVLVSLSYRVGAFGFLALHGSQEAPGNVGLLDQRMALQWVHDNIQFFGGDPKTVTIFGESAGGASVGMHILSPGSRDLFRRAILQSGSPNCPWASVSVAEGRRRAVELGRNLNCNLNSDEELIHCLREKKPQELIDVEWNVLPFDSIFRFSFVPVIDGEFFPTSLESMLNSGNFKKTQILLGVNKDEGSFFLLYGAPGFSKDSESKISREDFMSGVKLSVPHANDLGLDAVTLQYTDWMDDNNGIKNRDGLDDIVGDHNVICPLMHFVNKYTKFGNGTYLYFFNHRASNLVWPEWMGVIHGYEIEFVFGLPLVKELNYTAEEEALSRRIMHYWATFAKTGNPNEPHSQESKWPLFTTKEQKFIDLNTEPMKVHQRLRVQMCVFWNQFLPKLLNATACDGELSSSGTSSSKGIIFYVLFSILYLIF

| Structure (SMILES) | IC50 (Acetylcholinesterase [1]) [µM] | IC50 (Acetylcholinesterase [2]) [nM] | inhibition [3] |
| --- | --- | --- | --- |
| Cc1cccc(Nc2ccccc2C(=O)NCCCCCCCCCCCCNc2c3c(nc4cc(Cl)ccc24)CCCC3)c1C | 2.36 | 16.2 | – |
| Cc1cccc(Nc2ccccc2C(=O)NCCCCCC(=O)NCCCCCCNc2c3c(nc4cc(Cl)ccc24)CCCC3)c1C | 0.00294 | 7.39 | – |
| Cc1cccc(Nc2ccccc2C(=O)NCCC(=O)NCCCCCCCNc2c3c(nc4cc(Cl)ccc24)CCCC3)c1C | 0.00667 | 10 | – |
| Clc1ccc2c(Cl)c3c(nc2c1)CCCC3 | > 50 | – | – |
| Cc1cccc(Nc2ccccc2C(=O)NCC(=O)NCCCCCCCCNc2c3c(nc4ccccc24)CCCC3)c1C | 0.0033 | 17.2 | – |
| Cc1cccc(Nc2ccccc2C(=O)NCCCCCCNc2c3c(nc4ccccc24)CCCC3)c1C | 0.00224 | 0.129 | – |
| Cc1cccc(Nc2ccccc2C(=O)NCC(=O)NCCCCCCCNc2c3c(nc4cc(Cl)ccc24)CCCC3)c1C | 0.000418 | 0.009 | – |
| Cc1cccc(Nc2ccccc2C(=O)NCCCC(=O)NCCCCCCCCNc2c3c(nc4ccccc24)CCCC3)c1C | 0.0174 | 14.6 | – |
| Cc1cccc(Nc2ccccc2C(=O)NCCCC(=O)NCCCCCCNc2c3c(nc4cc(Cl)ccc24)CCCC3)c1C | 0.0417 | 15.6 | – |
| Cc1cccc(Nc2ccccc2C(=O)NCCCC(=O)NCCCCCCCNc2c3c(nc4ccccc24)CCCC3)c1C | 0.00809 | 44.6 | – |
| Cc1cccc(Nc2ccccc2C(=O)NCCCCCC(=O)NCCCNc2c3c(nc4ccccc24)CCCC3)c1C | 0.811 | 20.2 | – |
| Cc1cccc(Nc2ccccc2C(=O)NCC(=O)NCCCCCCCNc2c3c(nc4ccccc24)CCCC3)c1C | 0.00555 | 15.3 | – |
| Cc1cccc(Nc2ccccc2C(=O)NCCC(=O)NCCCCCCNc2c3c(nc4ccccc24)CCCC3)c1C | 0.985 | 40.2 | – |
| Cc1cccc(Nc2ccccc2C(=O)NCC(=O)NCCCCNc2c3c(nc4ccccc24)CCCC3)c1C | 0.262 | 53.6 | – |
| Cc1cccc(Nc2ccccc2C(=O)NCCCCCC(=O)NCCCCCCCNc2c3c(nc4ccccc24)CCCC3)c1C | 0.0036 | 3.66 | – |
| Cc1cccc(Nc2ccccc2C(=O)NCCCCCCCNc2c3c(nc4ccccc24)CCCC3)c1C | 0.00139 | 25.2 | – |
| Cc1cccc(Nc2ccccc2C(=O)NCCC(=O)NCCCCNc2c3c(nc4ccccc24)CCCC3)c1C | 0.426 | 2.43 | – |
| Cc1cccc(Nc2ccccc2C(=O)NCCCCCCCCNc2c3c(nc4ccccc24)CCCC3)c1C | 0.0755 | 0.045 | – |
| Cc1cccc(Nc2ccccc2C(=O)NCC(=O)NCCCCCCNc2c3c(nc4ccccc24)CCCC3)c1C | 0.0183 | 54.8 | – |

| Structure (SMILES) | IC50 (Acetylcholinesterase [1]) [µM] | IC50 (Acetylcholinesterase [2]) [nM] | inhibition [3] |
| --- | --- | --- | --- |
| Cc1cccc(Nc2ccccc2C(=O)NCCCC(=O)NCCCNc2c3c(nc4ccccc24)CCCC3)c1C | 3.73 | 23 | – |
| Cc1cccc(Nc2ccccc2C(=O)NCCCC(=O)NCCCCCCNc2c3c(nc4ccccc24)CCCC3)c1C | 0.195 | 29.9 | – |
| CN(C)C(=O)Oc1cccc([N+](C)(C)C)c1 [NEOSTIGMINE] | 0.0046 | – | – |
| Cc1cccc(Nc2ccccc2C(=O)NCCCCCCCCCCCCNc2c3c(nc4ccccc24)CCCC3)c1C | 0.0509 | 6.94 | – |
| Cc1cccc(Nc2ccccc2C(=O)NCCC(=O)NCCCCCCNc2c3c(nc4cc(Cl)ccc24)CCCC3)c1C | 0.00114 | 2.96 | – |
| Cc1cccc(Nc2ccccc2C(=O)NCC(=O)NCCCCCCNc2c3c(nc4cc(Cl)ccc24)CCCC3)c1C | 0.00765 | 3.46 | – |
| Cc1cccc(Nc2ccccc2C(=O)NCCCCCC(=O)NCCCCNc2c3c(nc4cc(Cl)ccc24)CCCC3)c1C | 0.0374 | 0.299 | – |
| Cc1cccc(Nc2ccccc2C(=O)NCCCCCCNc2c3c(nc4cc(Cl)ccc24)CCCC3)c1C | 7.23 | 1.02 | – |
| Cc1cccc(Nc2ccccc2C(=O)NCCCCCCCCCCNc2c3c(nc4cc(Cl)ccc24)CCCC3)c1C | 0.000776 | 1.85 | – |
| Cc1cccc(Nc2ccccc2C(=O)NCCCC(=O)NCCCCCCCNc2c3c(nc4cc(Cl)ccc24)CCCC3)c1C | 0.00791 | 6.55 | – |
| Clc1c2c(nc3ccccc13)CCCC2 | > 25 | 83.9 | – |
| Cc1cccc(Nc2ccccc2C(=O)NCCCC(=O)NCCCNc2c3c(nc4cc(Cl)ccc24)CCCC3)c1C | 0.00713 | 1.03 | – |
| Cc1cccc(Nc2ccccc2C(=O)NCCCCCC(=O)NCCCNc2c3c(nc4cc(Cl)ccc24)CCCC3)c1C | 0.00165 | 7.85 | – |
| Cc1cccc(Nc2ccccc2C(=O)NCCCCCCCCCNc2c3c(nc4cc(Cl)ccc24)CCCC3)c1C | 0.00694 | 6.72 | – |
| Cc1cccc(Nc2ccccc2C(=O)NCCCCCC(=O)NCCCCCCCCNc2c3c(nc4ccccc24)CCCC3)c1C | 0.0187 | 6.26 | – |
| Cc1cccc(Nc2ccccc2C(=O)NCCCCCC(=O)NCCCCCCNc2c3c(nc4ccccc24)CCCC3)c1C | 1.44 | 34 | – |
| Cc1cccc(Nc2ccccc2C(=O)NCCCCCC(=O)NCCCCNc2c3c(nc4ccccc24)CCCC3)c1C | 1.86 | 34 | – |
| Cc1cccc(Nc2ccccc2C(=O)NCCC(=O)NCCCNc2c3c(nc4cc(Cl)ccc24)CCCC3)c1C | 0.0203 | 21.3 | – |
| Cc1cccc(Nc2ccccc2C(=O)NCCCCCCCCNc2c3c(nc4cc(Cl)ccc24)CCCC3)c1C | 0.000495 | 1.49 | – |

| Structure (SMILES) | IC50 (Acetylcholinesterase [1]) [µM] | IC50 (Acetylcholinesterase [2]) [nM] | inhibition [3] |
| --- | --- | --- | --- |
| Cc1cccc(Nc2ccccc2C(=O)NCCCC(=O)NCCCCNc2c3c(nc4ccccc24)CCCC3)c1C | 0.0897 | 14.6 | – |
| Cc1cccc(Nc2ccccc2C(=O)NCCCCCC(=O)NCCCCCCCNc2c3c(nc4cc(Cl)ccc24)CCCC3)c1C | 0.0111 | 13.4 | – |
| Cc1cccc(Nc2ccccc2C(=O)NCC(=O)NCCCNc2c3c(nc4ccccc24)CCCC3)c1C | 0.0873 | 47.5 | – |
| Cc1cccc(Nc2ccccc2C(=O)O)c1C [MEFENAMIC ACID] | > 1250 | 6120 | – |
| Cc1cccc(Nc2ccccc2C(=O)NCCC(=O)NCCCCCCCNc2c3c(nc4ccccc24)CCCC3)c1C | 0.0139 | 1.02 | – |
| Cc1cccc(Nc2ccccc2C(=O)NCCCC(=O)NCCCCCCCCNc2c3c(nc4cc(Cl)ccc24)CCCC3)c1C | 0.017 | 6.59 | – |
| Cc1cccc(Nc2ccccc2C(=O)NCCCCCCCCCCNc2c3c(nc4ccccc24)CCCC3)c1C | 0.385 | 0.908 | Active |
| Cc1cccc(Nc2ccccc2C(=O)NCC(=O)NCCCCNc2c3c(nc4cc(Cl)ccc24)CCCC3)c1C | 0.156 | 89.4 | – |
| Cc1cccc(Nc2ccccc2C(=O)NCCC(=O)NCCCCCCCCNc2c3c(nc4ccccc24)CCCC3)c1C | 0.00858 | 4.07 | – |
| Cc1cccc(Nc2ccccc2C(=O)NCC(=O)NCCCNc2c3c(nc4cc(Cl)ccc24)CCCC3)c1C | 0.0281 | 3.1 | – |
| CN(C)C(=O)Oc1ccc[n+](C)c1 [PYRIDOSTIGMINE] | 0.082 | – | – |
| Cc1cccc(Nc2ccccc2C(=O)NCC(=O)NCCCCCCCCNc2c3c(nc4cc(Cl)ccc24)CCCC3)c1C | 0.0398 | 18.1 | – |
| Cc1cccc(Nc2ccccc2C(=O)NCCCCCCCCCNc2c3c(nc4ccccc24)CCCC3)c1C | 0.00154 | 15.1 | – |
| Cc1cccc(Nc2ccccc2C(=O)NCCCC(=O)NCCCCNc2c3c(nc4cc(Cl)ccc24)CCCC3)c1C | 0.0136 | 12.4 | – |
| Cc1cccc(Nc2ccccc2C(=O)NCCCCCCCNc2c3c(nc4cc(Cl)ccc24)CCCC3)c1C | 1.38 | 29.8 | – |
| Cc1cccc(Nc2ccccc2C(=O)NCCCCCC(=O)NCCCCCCCCNc2c3c(nc4cc(Cl)ccc24)CCCC3)c1C | 0.0801 | 8.67 | – |
| Cc1cccc(Nc2ccccc2C(=O)NCCC(=O)NCCCNc2c3c(nc4ccccc24)CCCC3)c1C | 3.8 | 7.92 | – |
| Cc1cccc(Nc2ccccc2C(=O)NCCC(=O)NCCCCNc2c3c(nc4cc(Cl)ccc24)CCCC3)c1C | 2.47 | 33 | – |
| Cc1cccc(Nc2ccccc2C(=O)NCCC(=O)NCCCCCCCCNc2c3c(nc4cc(Cl)ccc24)CCCC3)c1C | 0.0183 | 4.97 | – |
